US20260041653A1, “AN HDAC INHIBITOR FOR TREATING CANCER WITH A MODIFIED STK11 ACTIVITY OR EXPRESSION” (Tango Therapeutics, Inc., priority 2022, published 2026)

Test system: MC38_sgStk11 tumor
Test: Anti-tumor efficacy in murine subcutaneous MC38_sgStk11 tumor model
Assay type: in vivo, Mus musculus
Conditions: for T/C / TGI %: day 11
Method: Summary: An in vivo anti-tumor efficacy of double combination treatment of Anti-PD1 and HDAC1,2-selective inhibitor in a murine subcutaneous MC38_sgStk11 tumor model in […] mice was performed.
96 mice plus 39 spare mice of the species: Mus musculus: strain: C57BL/6; age 8-10 weeks; sex: female; and body weight: 16.9-20.0 g
The MC38_sgStk11 tumor cells were maintained in vitro as a monolayer culture in DMEM+2 mM glutamine supplemented with about 10% heat inactivated fetal bovine serum, about 100 U/ml penicillin and 100 μg/ml streptomycin at about 37° C. in an atmosphere of about 5% CO2 in air. The tumor cells were routinely sub-cultured twice weekly by trypsin-EDTA treatment. The cells growing in an exponential growth phase were harvested and counted for tumor inoculation.
Each mouse was inoculated subcutaneously at the right upper flank with MC38_sgStk11 tumor cells (0.5×106) in 0.1 ml of PBS for tumor development. Treatments were started on day 4 after tumor inoculation when the average tumor size reached 52 mm^3. The animals were assigned into groups according to a sorting standard operating procedures based upon their tumor volumes. Each group consisted of 8 tumor bearing mice. The testing article was administrated to the mice according to the predetermined regimen as shown in the experimental design table (Table 1-1).
All the procedures related to animal handling, care and the treatment in the study were performed according to the guidelines approved by the Institutional Animal Care and Use Committee (IACUC) of vendor following the guidance of the Association for Assessment and Accreditation of Laboratory Animal Care (AAALAC). At the time of routine monitoring, the animals were daily checked for any effects of tumor growth and treatments on normal behavior such as mobility, food and water consumption, body weight gain/loss (body weights were measured three times per week), eye/hair matting and any other abnormal effect as stated in the protocol. Death and observed clinical signs were recorded on the basis of the numbers of animals within each subset.
A primary endpoint was to see if the tumor growth could be delayed or mice could be cured. Tumor size was measured three times per week in two dimensions using a caliper, and the volume was expressed in mm3 using the formula: V=0.5 a×b2 where a and b are the long and short diameters of the tumor, respectively. The T/C value (in percent) is an indication of antitumor effectiveness; T and C are the mean volume of the treated and control groups, respectively, on a given day. TGI is calculated for each group using the formula: TGI (%)=[1−(Ti−T0)/(Vi−V0)]×100; Ti is the average tumor volume of a treatment group on a given day, T0 is the average tumor volume of the treatment group on the day of treatment start, Vi is the average tumor volume of the vehicle control group on the same day with Ti, and V0 is the average tumor volume of the vehicle group on the day of treatment start.
Statistical analysis of difference in the tumor volume among the groups were conducted on the data obtained at the best therapeutic time point at the day 11 after the start of treatment. A one-way ANOVA was performed for comparisons between groups. The survival analysis between groups was carried out with Kaplan-Meier test. p<0.05 was considered to be statistically significant.

[1] = Gr 5: Compound I 75 mg/kg PO QD + Anti-IgG2a 10 mg/kg IP BIW
[2] = Gr 6: Compound I 150 mg/kg D0-D4, 100 mg/kg D5-D48 PO QD + Anti-IgG2a 10 mg/kg IP BIW

C[S@@](=N)(=O)c1ccc(C(=O)Nc2cc(-c3ccc(F)cc3)ccc2N)cc1 [Compound I, (R)—N-(4-amino-4′-fluoro-[1,1′-biphenyl]-3-yl)-4-(S-methylsulfonimidoyl)benzamide]
PR (partial regression) [1]: 0.0% | Tumor Volume (Gr 5: Compound I 75 mg/kg PO QD + Anti-IgG2a 10 mg/kg IP BIW, day 0 of treatment): 52 ± 2 mm^3 | Tumor Volume (Gr 5: Compound I 75 mg/kg PO QD + Anti-IgG2a 10 mg/kg IP BIW, day 2 of treatment): 218 ± 12 mm^3 | Tumor Volume (Gr 5: Compound I 75 mg/kg PO QD + Anti-IgG2a 10 mg/kg IP BIW, day 4 of treatment): 485 ± 37 mm^3 | Tumor Volume (Gr 5: Compound I 75 mg/kg PO QD + Anti-IgG2a 10 mg/kg IP BIW, day 7 of treatment): 576 ± 45 mm^3 | Tumor Volume (Gr 5: Compound I 75 mg/kg PO QD + Anti-IgG2a 10 mg/kg IP BIW, day 9 of treatment): 622 ± 44 mm^3 | T/C [1]: 29.7% | TGI % [1]: 72.1% | Tumor Volume (Gr 5: Compound I 75 mg/kg PO QD + Anti-IgG2a 10 mg/kg IP BIW, day 11 of treatment): 632 ± 55 mm^3 | Tumor Volume (Gr 5: Compound I 75 mg/kg PO QD + Anti-IgG2a 10 mg/kg IP BIW, day 14 of treatment): 580 ± 85 mm^3 | Tumor Volume (Gr 5: Compound I 75 mg/kg PO QD + Anti-IgG2a 10 mg/kg IP BIW, day 16 of treatment): 557 ± 101 mm^3 | Tumor Volume (Gr 5: Compound I 75 mg/kg PO QD + Anti-IgG2a 10 mg/kg IP BIW, day 18 of treatment): 536 ± 109 mm^3 | Tumor Volume (Gr 5: Compound I 75 mg/kg PO QD + Anti-IgG2a 10 mg/kg IP BIW, day 21 of treatment): 514 ± 117 mm^3 | Tumor Volume (Gr 5: Compound I 75 mg/kg PO QD + Anti-IgG2a 10 mg/kg IP BIW, day 23 of treatment): 502 ± 138 mm^3 | Tumor Volume (Gr 5: Compound I 75 mg/kg PO QD + Anti-IgG2a 10 mg/kg IP BIW, day 25 of treatment): 477 ± 151 mm^3 | Tumor Volume (Gr 5: Compound I 75 mg/kg PO QD + Anti-IgG2a 10 mg/kg IP BIW, day 28 of treatment): 551 ± 171 mm^3 | Tumor Volume (Gr 5: Compound I 75 mg/kg PO QD + Anti-IgG2a 10 mg/kg IP BIW, day 30 of treatment): 815 ± 291 mm^3 | Tumor Volume (Gr 5: Compound I 75 mg/kg PO QD + Anti-IgG2a 10 mg/kg IP BIW, day 32 of treatment): 1001 ± 375 mm^3 | Tumor Volume (Gr 5: Compound I 75 mg/kg PO QD + Anti-IgG2a 10 mg/kg IP BIW, day 34 of treatment): 827 ± 268 mm^3 | Tumor Volume (Gr 5: Compound I 75 mg/kg PO QD + Anti-IgG2a 10 mg/kg IP BIW, day 38 of treatment): 14 mm^3 | Tumor Volume (Gr 5: Compound I 75 mg/kg PO QD + Anti-IgG2a 10 mg/kg IP BIW, day 42 of treatment): 13 mm^3 | Tumor Volume (Gr 5: Compound I 75 mg/kg PO QD + Anti-IgG2a 10 mg/kg IP BIW, day 45 of treatment): 6 mm^3 | Tumor Volume (Gr 5: Compound I 75 mg/kg PO QD + Anti-IgG2a 10 mg/kg IP BIW, day 49 after start of treatment): 0 mm^3 | Tumor Volume (Gr 5: Compound I 75 mg/kg PO QD + Anti-IgG2a 10 mg/kg IP BIW, day 52 after start of treatment): 0 mm^3 | Tumor Volume (Gr 5: Compound I 75 mg/kg PO QD + Anti-IgG2a 10 mg/kg IP BIW, day 56 after start of treatment): 0 mm^3 | Tumor Volume (Gr 5: Compound I 75 mg/kg PO QD + Anti-IgG2a 10 mg/kg IP BIW, day 59 after start of treatment): 0 mm^3 | Tumor Volume (Gr 5: Compound I 75 mg/kg PO QD + Anti-IgG2a 10 mg/kg IP BIW, day 63 after start of treatment): 0 mm^3 | Tumor Volume (Gr 5: Compound I 75 mg/kg PO QD + Anti-IgG2a 10 mg/kg IP BIW, day 66 after start of treatment): 0 mm^3 | CR (complete regression) [2]: 0.0% | ORR (CR + PR) [2]: 0.0% | PR (partial regression) [2]: 0.0% | Tumor Volume (Gr 6: Compound I 150 mg/kg D0-D4, 100 mg/kg D5-D48 PO QD + Anti-IgG2a 10 mg/kg IP BIW, day 0 of treatment): 52 ± 2 mm^3 | Tumor Volume (Gr 6: Compound I 150 mg/kg D0-D4, 100 mg/kg D5-D48 PO QD + Anti-IgG2a 10 mg/kg IP BIW, day 2 of treatment): 205 ± 14 mm^3 | Tumor Volume (Gr 6: Compound I 150 mg/kg D0-D4, 100 mg/kg D5-D48 PO QD + Anti-IgG2a 10 mg/kg IP BIW, day 4 of treatment): 450 ± 40 mm^3 | Tumor Volume (Gr 6: Compound I 150 mg/kg D0-D4, 100 mg/kg D5-D48 PO QD + Anti-IgG2a 10 mg/kg IP BIW, day 7 of treatment): 508 ± 40 mm^3 | Tumor Volume (Gr 6: Compound I 150 mg/kg D0-D4, 100 mg/kg D5-D48 PO QD + Anti-IgG2a 10 mg/kg IP BIW, day 9 of treatment): 636 ± 19 mm^3 | T/C [2]: 41.2% | TGI % [2]: 60.2% | Tumor Volume (Gr 6: Compound I 150 mg/kg D0-D4, 100 mg/kg D5-D48 PO QD + Anti-IgG2a 10 mg/kg IP BIW, day 11 of treatment): 878 ± 66 mm^3 | Tumor Volume (Gr 6: Compound I 150 mg/kg D0-D4, 100 mg/kg D5-D48 PO QD + Anti-IgG2a 10 mg/kg IP BIW, day 14 of treatment): 1090 ± 167 mm^3 | Tumor Volume (Gr 6: Compound I 150 mg/kg D0-D4, 100 mg/kg D5-D48 PO QD + Anti-IgG2a 10 mg/kg IP BIW, day 16 of treatment): 1236 ± 211 mm^3 | Tumor Volume (Gr 6: Compound I 150 mg/kg D0-D4, 100 mg/kg D5-D48 PO QD + Anti-IgG2a 10 mg/kg IP BIW, day 18 of treatment): 1414 ± 243 mm^3 | Tumor Volume (Gr 6: Compound I 150 mg/kg D0-D4, 100 mg/kg D5-D48 PO QD + Anti-IgG2a 10 mg/kg IP BIW, day 21 of treatment): 1728 ± 366 mm^3 | Tumor Volume (Gr 6: Compound I 150 mg/kg D0-D4, 100 mg/kg D5-D48 PO QD + Anti-IgG2a 10 mg/kg IP BIW, day 23 of treatment): 2198 ± 472 mm^3 | Tumor Volume (Gr 6: Compound I 150 mg/kg D0-D4, 100 mg/kg D5-D48 PO QD + Anti-IgG2a 10 mg/kg IP BIW, day 25 of treatment): 2054 ± 638 mm^3 | Tumor Volume (Gr 6: Compound I 150 mg/kg D0-D4, 100 mg/kg D5-D48 PO QD + Anti-IgG2a 10 mg/kg IP BIW, day 28 of treatment): 1705 ± 330 mm^3 | Tumor Volume (Gr 6: Compound I 150 mg/kg D0-D4, 100 mg/kg D5-D48 PO QD + Anti-IgG2a 10 mg/kg IP BIW, day 30 of treatment): 1840 ± 326 mm^3 | Tumor Volume (Gr 6: Compound I 150 mg/kg D0-D4, 100 mg/kg D5-D48 PO QD + Anti-IgG2a 10 mg/kg IP BIW, day 32 of treatment): 1949 ± 395 mm^3 | Tumor Volume (Gr 6: Compound I 150 mg/kg D0-D4, 100 mg/kg D5-D48 PO QD + Anti-IgG2a 10 mg/kg IP BIW, day 34 of treatment): 2089 ± 389 mm^3
